Pest or weed control, MIC and responders data for 7 compounds are collected here from US4965280A, “Antifungal carbinols” (E. I. Du Pont de Nemours and Company, priority 1989, dated 1990).

The test system of experiment [1] is Venturia inaequalis. In words: Example A apple scab. It counts as in vivo. The note with it: 100 PPM, read-out: disease control rating, Ex. A. In short, it runs like this: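 First, compounds are taken up in acetone amounting to 6% of the final volume. Next, they are suspended in purified water with 250 ppm TREM 014 at 100 or 20 ppm. Finally, seedlings of apple are sprayed until run-off.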

The subject of experiment [2] is Puccinia recondita. In words: Example G wheat leaf rust. Format: in vivo. Particulars: 100 PPM, read-out: disease control rating, Ex. G.
The test system of experiment [3] is Pythium aphanadermatum. In words: Example J cucumber damping off. Format: in vivo. Particulars: Pythium, 336 h; 5 kg/ha; read-out: disease control rating, Ex. J. As to the method: […] Seeds and soil were then inoculated with a mixture of sand, cereal and mycelium of the fungus Pythium aphanadermatum, causal agent of cucumber damping off, and incubated in a growth chamber at 30° C. for 14 days. Disease ratings were then made.

The test system of experiment [4] is Erysiphe graminis f. sp. tritici. Description: Example D wheat powdery mildew. Format: in vivo. The note with it: Blumeria graminis, 144 h; 100 PPM; read-out: disease control rating, Ex. D. The method, boiled down: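 First, compound taken up in acetone, 6% of the end volume. Next, suspended in water with 250 ppm polyhydric alcohol esters at 100 or 20 ppm. Last, applied to wheat seedlings until run-off.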

Experiment [5] concerns Rhizoctonia solani. In words: Example K cotton blight. Format: in vivo. Particulars: 336 h, 5 kg/ha, read-out: disease control rating, Ex. K. As to the method:
[…] Seeds and soil were then inoculated with a mixture of sand, cereal and mycelium of the fungus Rhizoctonia solani, causal agent of cotton blight, and incubated in a growth chamber at 30° C. for 14 days. Disease ratings were then made.

Experiment [6] deals with Cercosporidium personatum. Description: Example B Peanut Late Leafspot. Particulars: Nothopassalora personata; 100 PPM; read-out: disease control rating, Ex. B. Format: in vivo. In short, it runs like this: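 Dose 100 or 20 ppm; vehicle acetone 6% v/v final in water + 250 ppm surfactant; applied by spraying peanut seedlings to run-off.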
Experiment [7] relates to Aspergillus fumigatus ATCC 28214. Description: In vitro antifungal MIC, microtiter broth dilution. Particulars: Aspergillus fumigatus, ATCC28214, 24 h, read-out: MIC values, A. fumigatus, 30°, 24 hours. In general terms: Dilution methods test growth across graded concentrations, often in twofold steps.
Experiment [8] concerns Phytophthora infestans. In words: whole plant or invertebrate. It counts as in vivo. The note with it: Phytophthora infestans, in Solanum lycopersicum, read-out: disease control rating, Ex. H, 100 PPM.
For experiment [9], the system named is Candida albicans ATCC 11651. Description: In vivo systemic Candida infection in mice, primary assay. More on the design: species or system Candida albicans; CF-1 female mice. The note with it: Candida albicans, 150 mg/kg per day, read-out: % Survival. The method, boiled down:
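CF-1 female mice (20 g, 10 per group) were infected IV with 0.2 ml of 1×10^7/ml C. albicans ATCC 11651, then given test compound subcutaneously at 50 or 150 mg/kg/day at 1 and 6 h post-infection and once daily for three more days. Survival was followed for 21 days against infected untreated mice; ≥70% protection at 14 days was scored active.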

For experiment [10], the system named is Botrytis cinerea. In words: Example C bean grey mold. Format: in vivo. Particulars: Botrytis cinerea, 24 h, 100 PPM; read-out: disease control rating, Ex. C. In short, it runs like this:
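At 20 or 100 ppm, each compound was applied as an aqueous suspension (acetone 6% final; TREM 014 250 ppm) sprayed onto young broad bean plants to the point of run-off.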

Experiment [11] deals with Plasmorpara viticola. Description: Example I grape downy mildew. It counts as in vivo. The note with it: read-out: disease control rating, Ex. I. The method, boiled down:
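First, each compound is taken up in acetone amounting to 6% of the final volume. It is then suspended in purified water containing 250 ppm of the polyhydric alcohol ester surfactant TREM 014, at 100 or 20 ppm. Finally, the suspension is sprayed onto grape seedlings until run-off.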

The subject of experiment [12] is Rhizoctonia solani. Description: Example F rice sheath blight. Format: in vivo. Particulars: Rhizoctonia solani, 144 h, 100 PPM; read-out: disease control rating, Ex. F. In short, it runs like this: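 Application rates were 100 or 20 ppm, delivered as a foliar spray to the point of run-off on rice seedlings. The formulation used 6% acetone in water with 250 ppm surfactant.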

For experiment [13], the system named is Candida albicans ATCC 11651. Description: In vitro antifungal MIC, microtiter broth dilution. Particulars: Candida albicans, ATCC11651, 24 h, read-out: MIC values, C. albicans, 30°, 24 hours.
Experiment [14] concerns Pyricularia oryzae. In words: whole plant or invertebrate. The note with it: Pyricularia oryzae, 120 h, read-out: disease control rating, Ex. E, 100 PPM. It counts as in vivo.
The test system of experiment [15] is Sclerotium rolfsii. Description: Example M southern blight. Format: in vivo. The note with it: Agroathelia rolfsii, 336 h; 5 kg/ha; read-out: disease control rating, Ex. M. As to the method:
[…] Seeds and soil were then inoculated with a mixture of sand, cereal and mycelium of the fungus Sclerotium rolfsii, causal agent of sourthern blight, and incubated in a growth chamber at 30° C. for 14 days. Disease ratings were then made.

In brackets after ≈: the same amount, converted by molar mass. Where two headings read alike, the source gives them in different places. Some results are limits rather than exact numbers.

A word on the MIC: it is the smallest concentration in the dilution series that meets the test's criterion for growth inhibition.

Consider `C=C(c1ccccc1)C(O)(Cn1cncn1)c1ccccc1` (stereo not shown) [Example 608], for which the pest or weed control at 100 ppm in [1] turned out to be 87%; in experiment [2] it was 100%; in experiment [4] it was 98%; in [6], 100%; in experiment [8], 0%; in experiment [10], 98%. Moreover, the pest or weed control at 100 ppm stood at 0% in experiment [11], 81% in experiment [12] and 4% in experiment [14]. Also, the pest or weed control at 5000 g/ha in experiment [3] and in experiment [5] was 0% in each case. Also, the MIC in experiment [7] is 6.3 mg/L (≈ 21.6 µM); in [13], 0.4 mg/L (≈ 1.37 µM). In addition, the responders at 150 mg/kg in [9] (ATCC11651, 168 h, day 7) was found to be 100%; in experiment [9] (ATCC11651, 336 h, day 14), 70%; in experiment [9] (ATCC11651, 504 h, day 21) it was 20%.
`C=C(c1ccc(Cl)cc1Cl)C(O)(Cn1cncn1)c1ccc(F)cc1` (stereo not shown) [Example 99]: the pest or weed control at 100 ppm in experiment [1] amounted to 100%; in experiment [2], 100%; in [4], 83%; in experiment [6], 100%; in experiment [8] it was 0%; in experiment [10], 89%. The pest or weed control at 100 ppm in experiment [11] came out at 83%; in experiment [12] it was 61%; in experiment [14], 98%. In addition, the pest or weed control at 5000 g/ha in [3] and in experiment [5] was 0% in each case. Further, the values for the MIC in experiment [7] and in experiment [13] were 6.3 mg/L (≈ 16.7 µM) and 0.05 mg/L (≈ 0.132 µM), respectively. Moreover, the responders at 150 mg/kg in experiment [9] (ATCC11651, 168 h, day 7) was 100%; in experiment [9] (ATCC11651, 336 h, day 14) it was 100%; in experiment [9] (ATCC11651, 504 h, day 21), 40%.
For the compound `C=C(c1ccccc1Cl)C(O)(Cn1cncn1)c1ccc(F)cc1` (stereo not shown) [Example 32], the pest or weed control at 100 ppm in experiment [1] is 100%; in experiment [2], 100%; in [4], 95%; in [6], 100%; in [8], 0%; in [10], 98%. Also, the pest or weed control at 100 ppm in experiment [11] was found to be 98%; in experiment [12] it was 33%; in experiment [14], 97%. In addition, the pest or weed control at 5000 g/ha in experiment [3] and in experiment [5] was 0% in each case. Moreover, the MIC in experiment [7] was 1.6 mg/L (≈ 4.65 µM); in experiment [13], no more than 0.4 mg/L. Also, the responders at 150 mg/kg in [9] (ATCC11651, 168 h, day 7) was 100%; in experiment [9] (ATCC11651, 336 h, day 14), 90%; in experiment [9] (ATCC11651, 504 h, day 21), 50%.
Consider `C=C(c1ccc(Cl)cc1)C(O)(Cn1cncn1)c1ccc(F)cc1` (stereo not shown) [Example 25], for which the pest or weed control at 100 ppm in [1] worked out at 100%; in experiment [2], 97%; in [4], 91%; in experiment [6], 100%; in experiment [8], 0%; in [10] it was 96%. Besides, the pest or weed control at 100 ppm in experiment [11] turned out to be 0%; in experiment [12], 48%; in experiment [14], 31%. Also, the pest or weed control at 5000 g/ha in experiment [15] stood at 35%; in experiment [3] it was 0%. Also, the MIC in experiment [7] came out at 25 mg/L (≈ 72.7 µM); in experiment [13], 1.6 mg/L (≈ 4.65 µM). For the same compound, the responders at 150 mg/kg in experiment [9] (ATCC11651, 168 h, day 7) amounted to 100%; in [9] (ATCC11651, 336 h, day 14) it was 100%; in [9] (ATCC11651, 504 h, day 21) it was 50%.
As to `C=C(c1ccc(Cl)cc1)C(O)(Cn1cncn1)c1ccccc1Cl` (stereo not shown) [Example 671], the pest or weed control at 100 ppm in experiment [1] stood at 100%; in experiment [2], 100%; in [4], 94%; in experiment [6], 100%; in [8] it was 0%; in experiment [10], 92%. Moreover, the pest or weed control at 100 ppm in [11] was 84%; in experiment [12] it was 100%; in experiment [14] it was 84%. Moreover, the pest or weed control at 5000 g/ha in [15] and in experiment [3] was 0% each time. In addition, the MIC in [7] is 0.2 mg/L (≈ 0.555 µM); in experiment [13], 0.03 mg/L (≈ 0.0833 µM). Besides, the responders at 150 mg/kg in experiment [9] (ATCC11651, 168 h, day 7) was determined as 100%; in [9] (ATCC11651, 336 h, day 14), 100%; in [9] (ATCC11651, 504 h, day 21), 60%.
For the compound `C=C(c1ccc(F)cc1F)C(O)(Cn1cncn1)c1ccc(F)cc1` (stereo not shown) [Example 94, 2-(4-Fluorophenyl)-3-(2,4-difluorophenyl)-1-(1H-1,2,4-triazol-1-yl)-3-buten-2-ol], the pest or weed control at 100 ppm in [1] amounted to 86%; in [2], 100%; in experiment [4], 98%; in [6], 61%; in experiment [8], 0%; in [10], 96%. For the same compound, the pest or weed control at 100 ppm in experiment [11] worked out at 0%; in [12] it was 36%; in experiment [14], 78%. The pest or weed control at 5000 g/ha in [3] and in experiment [5] was 0% throughout. The minimal inhibitory concentration (MIC) came to 50 mg/L (≈ 145 µM) in [7] and 0.4 mg/L (≈ 1.16 µM) in experiment [13]. Further, the responders at 150 mg/kg in [9] (ATCC11651, 168 h, day 7) came out at 100%; in experiment [9] (ATCC11651, 336 h, day 14) it was 40%; in experiment [9] (ATCC11651, 504 h, day 21), 10%.
Turning to `C=C(c1ccc(F)cc1)C(O)(Cn1cncn1)c1ccc(Cl)cc1` (stereo not shown) [Example 3], the pest or weed control at 100 ppm was determined as 100% in [1]; 100% in experiment [2]; 93% in [4]; 100% in experiment [6]; 0% in experiment [8]; 93% in [10]. For the same compound, the pest or weed control at 100 ppm in experiment [11] is 0%; in experiment [12], 93%; in experiment [14], 5%. For the same compound, the pest or weed control at 5000 g/ha in [3] and in experiment [5] was 0% throughout. Also, the MIC in [7] was 50 mg/L (≈ 145 µM); in [13], no more than 0.4 mg/L. Moreover, the responders at 150 mg/kg in [9] (ATCC11651, 168 h, day 7) stood at 100%; in experiment [9] (ATCC11651, 336 h, day 14), 100%; in experiment [9] (ATCC11651, 504 h, day 21), 60%.
